# Assay results: article PMC6164663, “Flavonoids as Putative Epi-Modulators: Insight into Their Binding Mode with BRD4 Bromodomains Using Molecular Docking and Dynamics” (Biomolecules, 2018)
# Target: T1, BRD4 (Homo sapiens, UniProt O60885)
# T1 construct: tandem (BD1 + BD2)
# Experiment: AlphaScreen binding assay with H4 peptide ([…]) K5/[…] Ac, duplicate dose-response (IC50 […])
# Conditions: read-out: DATA 2
smiles,measurement,value
O=c1cc(-c2ccc(O)c(-c3c(O)cc(O)c4c(=O)cc(-c5ccc(O)cc5)oc34)c2)oc2cc(O)cc(O)c12 [amentoflavone],IC50,30.4 µM
